# Columns and labels:
# [1] = in vivo; cited from earlier work
# HDAC2 = HDAC2 (Homo sapiens, UniProt Q92769); assay type: biochemical; details: HDAC2, 10 μM HDAC Substrate 3
# Experimental: (§1) Briefly, all of the compounds are dissolved in DMSO. A series of dilutions of the compounds were prepared with 10% DMSO in HDAC assay buffer and 5 μl of the dilution was added to a 50 μl reaction so that the final concentration of DMSO is 1% in all of reactions. The compounds were pre-incubated in duplicate at RT for 1 hour in a mixture containing HDAC assay buffer, 5 μg BSA, HDAC enzyme (see Table 7) and a the particular HDACi. After 1 hour, the enzymatic reactions were initiated by the addition of HDAC substrate (BPS Bioscience) to a final concentration of 10 μM or 2 μM. The enzymatic reaction proceeded for 30 minutes at 37° C.
# (§2) HDAC activity assays were performed in duplicates at each concentration. The fluorescent intensity data were analyzed using the computer software, Graphpad Prism. In the absence of the compound, the fluorescent intensity (Ft) in each data set was defined as 100% activity. In the absence of HDAC, the fluorescent intensity (Fb) in each data set was defined as 0% activity. The percent activity in the presence of each compound was calculated according to the following equation: % activity=(F−Fb)/(Ft−Fb), where F=the fluorescent intensity in the presence of the compound. […]
# HDAC3/NCOR2 = HDAC3/NCOR2 (Homo sapiens, UniProt O15379); test: HDAC activity assay (fluorescence); assay type: biochemical; details: HDAC3/NCOR2, 10 μM HDAC Substrate 3
# HDAC3/NCOR2, sequence (O15379 whole entry): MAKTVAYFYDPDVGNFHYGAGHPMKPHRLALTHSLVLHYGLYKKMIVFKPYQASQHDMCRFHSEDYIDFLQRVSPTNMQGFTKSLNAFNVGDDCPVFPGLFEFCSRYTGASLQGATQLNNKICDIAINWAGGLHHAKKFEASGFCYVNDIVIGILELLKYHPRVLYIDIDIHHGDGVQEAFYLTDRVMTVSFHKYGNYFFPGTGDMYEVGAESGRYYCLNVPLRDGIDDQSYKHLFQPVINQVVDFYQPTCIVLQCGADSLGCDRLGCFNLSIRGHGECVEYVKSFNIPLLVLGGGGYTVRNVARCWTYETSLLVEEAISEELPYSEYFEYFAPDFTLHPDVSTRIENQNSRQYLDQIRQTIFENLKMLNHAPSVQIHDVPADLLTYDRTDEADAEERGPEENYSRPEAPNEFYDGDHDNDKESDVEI
# HDAC3/NCOR2, sequence (Q9Y618 395-489 partner limits assumed): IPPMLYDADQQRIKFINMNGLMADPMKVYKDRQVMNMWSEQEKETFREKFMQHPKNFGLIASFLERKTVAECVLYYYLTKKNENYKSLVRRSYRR
# Experimental: as §1, §2
# HDAC1 = HDAC1 (Homo sapiens, UniProt Q13547); test: HDAC activity assay (fluorescence); assay type: biochemical; details: HDAC1, 10 μM HDAC Substrate 3
# HDAC1, sequence (Q13547 whole entry): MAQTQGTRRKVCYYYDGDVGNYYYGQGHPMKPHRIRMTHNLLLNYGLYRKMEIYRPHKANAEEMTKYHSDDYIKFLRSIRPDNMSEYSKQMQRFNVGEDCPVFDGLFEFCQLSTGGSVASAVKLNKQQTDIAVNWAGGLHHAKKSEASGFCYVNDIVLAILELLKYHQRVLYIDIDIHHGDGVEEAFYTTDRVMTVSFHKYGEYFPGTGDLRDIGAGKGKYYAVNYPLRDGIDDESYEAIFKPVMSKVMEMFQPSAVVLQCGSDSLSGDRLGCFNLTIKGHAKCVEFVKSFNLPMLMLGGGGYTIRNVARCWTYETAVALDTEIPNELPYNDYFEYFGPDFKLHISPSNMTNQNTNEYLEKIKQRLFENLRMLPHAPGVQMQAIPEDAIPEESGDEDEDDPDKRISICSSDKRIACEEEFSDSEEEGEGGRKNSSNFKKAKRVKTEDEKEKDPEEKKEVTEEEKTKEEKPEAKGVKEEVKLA
# Experimental: as §1, §2
# [2] = tested on: P3HR1 Burkitt's lymphoma cells; test: Cell death by 7AAD staining after Nstat, washout, then ganciclovir
# Experimental: P3HR1 Burkitt's lymphoma cells were incubated with DMSO (solvent control) or Nstat for 3 days. After that time cell cultures were washed re-fed with ganciclovir (GCV) for an additional 3 days. All test conditions were run in triplicate. Cell death was measured by 7AAD staining.
# [3] = tested on: Histone 3 acetylation in peripheral blood mononuclear cells; test: H3 acetylation in peripheral blood mononuclear cells of healthy donors (flow cytometry); assay type: cell-based, human
# Text: Percentage of cells with H3 acetylation, as determined by flow cytometry, is shown.
# Since H3 acetylation is a pharmacodynamic biomarker of Nstat activity, acetylation of H3 was examined in treated cells.
# HDAC6 = biological target: T1, HDAC6 (Homo sapiens, UniProt Q9UBN7); details: HDAC6, 10 μM HDAC Substrate 3
# T1 sequence (Q9UBN7 1-1215): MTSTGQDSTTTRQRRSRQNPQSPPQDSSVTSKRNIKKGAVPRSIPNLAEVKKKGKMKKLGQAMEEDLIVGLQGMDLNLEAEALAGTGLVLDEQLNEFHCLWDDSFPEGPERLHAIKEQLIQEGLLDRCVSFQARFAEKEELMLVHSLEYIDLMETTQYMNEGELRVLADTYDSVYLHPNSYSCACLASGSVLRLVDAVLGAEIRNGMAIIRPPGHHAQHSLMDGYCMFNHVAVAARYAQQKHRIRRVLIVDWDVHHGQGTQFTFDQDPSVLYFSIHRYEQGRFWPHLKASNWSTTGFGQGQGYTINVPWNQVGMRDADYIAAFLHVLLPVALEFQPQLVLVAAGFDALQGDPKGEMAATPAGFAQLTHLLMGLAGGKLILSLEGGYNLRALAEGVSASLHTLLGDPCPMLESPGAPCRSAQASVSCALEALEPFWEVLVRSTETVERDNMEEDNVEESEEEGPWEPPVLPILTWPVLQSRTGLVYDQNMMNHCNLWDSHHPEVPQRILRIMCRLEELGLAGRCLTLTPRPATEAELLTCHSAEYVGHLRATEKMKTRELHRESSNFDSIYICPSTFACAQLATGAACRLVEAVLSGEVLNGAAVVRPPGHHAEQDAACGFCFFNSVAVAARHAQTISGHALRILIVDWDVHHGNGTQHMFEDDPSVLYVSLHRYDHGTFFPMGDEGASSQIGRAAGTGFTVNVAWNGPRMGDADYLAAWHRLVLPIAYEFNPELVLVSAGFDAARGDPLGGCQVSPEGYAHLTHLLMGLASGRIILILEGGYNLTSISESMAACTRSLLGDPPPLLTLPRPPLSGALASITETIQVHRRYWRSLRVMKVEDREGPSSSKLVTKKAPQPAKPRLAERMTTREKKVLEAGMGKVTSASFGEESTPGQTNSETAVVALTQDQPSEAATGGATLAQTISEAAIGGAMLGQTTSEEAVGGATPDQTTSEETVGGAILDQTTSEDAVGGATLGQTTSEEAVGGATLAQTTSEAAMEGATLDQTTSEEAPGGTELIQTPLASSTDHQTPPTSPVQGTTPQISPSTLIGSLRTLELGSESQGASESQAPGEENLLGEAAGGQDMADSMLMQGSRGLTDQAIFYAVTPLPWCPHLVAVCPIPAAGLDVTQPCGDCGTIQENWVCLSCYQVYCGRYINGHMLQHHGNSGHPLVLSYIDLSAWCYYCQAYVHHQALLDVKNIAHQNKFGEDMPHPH
# Experimental: as §1, §2
# [4] = Single dose pharmacokinetics of VRx-3996 in patients given oral nanatinostat and valganciclovir; assay type: in vivo, humans; details: Treatment C = 10 mg VRx-3996 p.o. and 900 mg Valganciclovir p.o., N 4
# HDAC2, sequence (Q92769 whole entry): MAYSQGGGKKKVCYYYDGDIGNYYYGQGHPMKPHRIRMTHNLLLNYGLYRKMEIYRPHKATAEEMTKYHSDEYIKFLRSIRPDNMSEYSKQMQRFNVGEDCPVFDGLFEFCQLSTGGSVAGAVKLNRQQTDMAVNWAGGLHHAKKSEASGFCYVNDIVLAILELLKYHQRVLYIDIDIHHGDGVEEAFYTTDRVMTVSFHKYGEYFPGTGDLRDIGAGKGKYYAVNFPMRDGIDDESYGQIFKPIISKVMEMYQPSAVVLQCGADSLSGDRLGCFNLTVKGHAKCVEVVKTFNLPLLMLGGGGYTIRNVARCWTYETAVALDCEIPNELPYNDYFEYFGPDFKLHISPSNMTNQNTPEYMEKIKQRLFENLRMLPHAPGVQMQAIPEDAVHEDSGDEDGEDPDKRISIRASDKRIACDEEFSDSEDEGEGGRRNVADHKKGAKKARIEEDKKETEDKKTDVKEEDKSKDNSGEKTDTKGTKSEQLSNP
structure (smiles),measurement,setting,value
"Nc1ccccc1NC(=O)c1ccc(CNC(=O)OCc2cccnc2)cc1 [MS-275, entinostat]",elimination half-life,[1],approximately 36 hours
"O=C(NO)c1cnc(N2C[C@@H]3[C@H](C2)[C@H]3NCc2ccc3cc(F)ccc3n2)nc1 [Nstat, 2-((1R,5S,6s)-6-(((6-fluoroquinolin-2-yl)methyl)amino)-3-azabicyclo[3.1.0]hexan-3-yl)-N-hydroxypyrimidine-5-carboxamide]",IC50,HDAC2,0.012 µM
same,IC50,HDAC3/NCOR2,0.012 µM
same,IC50,HDAC1,0.0036 µM
same,increase of cytotoxic activity when combined with Ganciclovir,[2],~40%
same,cell cytotoxicity when combined with ganciclovir,"[2]; EBV infected cell line P3HR1, effect seen even after Nstat removal",increases cell cytotoxicity
same,duration of effect on H3 acetylation,"[3]; PBMC from healthy donors, doses down to 10 nM, FIG. 3",long-lasting
same,potency in inducing elevated levels of Histone 3 acetylation,"[3]; PBMC of healthy volunteers, even at a dose of 100 nM, FIG. 2",much more potent than entinostat
same,IC50,HDAC6,0.45 µM
same,"AUC, geometric mean",[4],322 ng·h/mL
